The test deals with L1210 leukemia ip in BDF1 mice, survival T/C. The test can be described thus: NCI In Vivo Anticancer Drug Screen. Data for tumor model L1210 Leukemia (intraperitoneal) in B6D2F1 (BDF1) mice. The note with it: endpoint: mean survival time, higher = longer survival. The method, boiled down: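 Tumor was transplanted into mice, which were then dosed with test compound or vehicle alone. Survival was recorded for each group, and the treated figure was expressed relative to the control figure.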

[1] abbreviates: dose: 100.0 mg/kg/injection, schedule: Q01DX001 (ip), vehicle: carboxymethylcellulose (CMC).
The mark [2] stands for this setting: dose: 200.0 mg/kg/injection, schedule: Q01DX001 (ip), vehicle: carboxymethylcellulose (CMC).
Where [3] appears, read: dose: 400.0 mg/kg/injection, schedule: Q01DX001 (ip), vehicle: carboxymethylcellulose (CMC).
[4] abbreviates: dose: 400.0 mg/kg/injection, schedule: Q04DX003 (ip), vehicle: Klucel (hydroxypropylcellulose) (HPC).
Setting [5] is: dose: 100.0 mg/kg/injection, schedule: Q01DX001 (ip), vehicle: saline.
Setting [6] is: dose: 200.0 mg/kg/injection, schedule: Q01DX001 (ip), vehicle: saline.
Setting [7] is: dose: 400.0 mg/kg/injection, schedule: Q01DX001 (ip), vehicle: saline.
Where [8] appears, read: dose: 50.0 mg/kg/injection, schedule: Q01DX009 (ip), vehicle: water.
Where [9] appears, read: dose: 100.0 mg/kg/injection, schedule: Q01DX009 (ip), vehicle: water.
[10] abbreviates: dose: 200.0 mg/kg/injection, schedule: Q01DX009 (ip), vehicle: water.
The mark [11] stands for this setting: dose: 400.0 mg/kg/injection, schedule: Q01DX009 (ip), vehicle: water.
The mark [12] stands for this setting: dose: 50.0 mg/kg/injection, schedule: Q01DX009 (ip), vehicle: saline with Tween-80.

“And” between values parts separate entries of the source, which are not always exact repeats. Identical values can stand only once. Inconclusive results and toxic doses are left out.

`C1CCC(CCNCCC2CCCCC2)CC1`: the T/C runs as follows: (dose: 5.0 mg/kg/injection, schedule: Q01DX001 (ip), vehicle: saline) 102 % of control; (dose: 10.0 mg/kg/injection, schedule: Q01DX001 (ip), vehicle: saline) 102 % of control; (dose: 20.0 mg/kg/injection, schedule: Q01DX001 (ip), vehicle: saline) 104 % of control.
Regarding `CN(Cc1cnc2nc(N)c(Br)c(N)c2n1)c1ccc(C(=O)NC(CCC(=O)O)C(=O)O)cc1` (stereo not given), the T/C was 96 % of control (dose: 100.0 mg/kg/injection, schedule: Q04DX002 (ip), vehicle: sodium bicarbonate) and 96 % of control (dose: 200.0 mg/kg/injection, schedule: Q04DX002 (ip), vehicle: sodium bicarbonate).
Turning to `O=C1OC2(CCN(Cc3ccccc3)CC2)C(=O)N1c1cccc(Cl)c1`, the T/C runs as follows: under setting [1], 92 % of control; under setting [2], 106 % of control; under setting [3], 97 % of control.
Consider `CC(C)=CCC(=O)Nc1ccc(Cl)nn1`, for which the T/C (dose: 100.0 mg/kg/injection, schedule: Q04DX003 (ip), vehicle: Klucel (hydroxypropylcellulose) (HPC)) is 86 % of control; the T/C (dose: 200.0 mg/kg/injection, schedule: Q04DX003 (ip), vehicle: Klucel (hydroxypropylcellulose) (HPC)) is 91 % of control; the T/C under setting [4] is 100 % of control.
For `COc1ccc(-c2ccc(CCNC(C)=O)cc2)cc1Cl`, the T/C reads like this: under setting [1], 94 % of control; under setting [2], 86 % of control; under setting [3], 89 % of control.
Turning to `c1cc(-c2sc(-c3ccncc3)c(-c3ccncc3)c2-c2ccncc2)ccn1`, the T/C by setting is: (dose: 100.0 mg/kg/injection, schedule: Q01DX001 (ip), vehicle: Klucel (hydroxypropylcellulose) (HPC)) 107 % of control; (dose: 200.0 mg/kg/injection, schedule: Q01DX001 (ip), vehicle: Klucel (hydroxypropylcellulose) (HPC)) 98 % of control; (dose: 400.0 mg/kg/injection, schedule: Q01DX001 (ip), vehicle: Klucel (hydroxypropylcellulose) (HPC)) 98 % of control.
In the case of `CCCCOB(OCCCC)OCCCC`, the T/C (dose: 50.0 mg/kg/injection, schedule: Q01DX001 (ip), vehicle: saline) was 104 % of control; the T/C under setting [5] is 95 % of control; the T/C under setting [6] was 90 % of control; the T/C under setting [7] is 106 % of control.
As for `COc1cccc2c(=O)cc(C)[nH]c12`, the T/C is 104 % of control under setting [8]; 102 % of control under setting [9]; 101 % of control (dose: 100.0 mg/kg/injection, schedule: Q04DX003 (ip), vehicle: water); 109 % of control under setting [10]; 96 % of control (dose: 200.0 mg/kg/injection, schedule: Q04DX003 (ip), vehicle: water); 105 % of control under setting [11]. In addition, the T/C (dose: 400.0 mg/kg/injection, schedule: Q04DX003 (ip), vehicle: water) is 108 % of control.
Regarding `O=C(Nc1ccc(C2=NCCN2)cc1)c1ccc(NC(=O)c2ccc(C3=NCCN3)cc2)cc1`, the T/C (dose: 1.88 mg/kg/injection, schedule: Q01DX Z (ip), vehicle: saline) was 101 % of control; the T/C (dose: 3.75 mg/kg/injection, schedule: Q01DX Z (ip), vehicle: saline) is 106 % of control; the T/C (dose: 7.5 mg/kg/injection, schedule: Q01DX Z (ip), vehicle: saline) was 117 % of control; the T/C (dose: 15.0 mg/kg/injection, schedule: Q01DX009 (ip), vehicle: saline) is 119 % of control; the T/C (dose: 30.0 mg/kg/injection, schedule: Q01DX009 (ip), vehicle: saline) is 190 % of control; the T/C (dose: 30.0 mg/kg/injection, schedule: Q01DX Z (ip), vehicle: carboxymethylcellulose (CMC)) is 203 % of control. In addition, the T/C by setting is: (dose: 50.0 mg/kg/injection, schedule: Q01DX007 (oral), vehicle: carboxymethylcellulose (CMC)) 103 % of control; (dose: 60.0 mg/kg/injection, schedule: Q01DX009 (ip), vehicle: saline) 197 % of control and 232 % of control; (dose: 62.5 mg/kg/injection, schedule: Q## X010 (oral), vehicle: saline) 101 % of control; (dose: 100.0 mg/kg/injection, schedule: Q01DX007 (oral), vehicle: carboxymethylcellulose (CMC)) 100 % of control; (dose: 120.0 mg/kg/injection, schedule: Q01DX009 (ip), vehicle: saline) 117 % of control; (dose: 125.0 mg/kg/injection, schedule: Q## X010 (oral), vehicle: saline) 102 % of control. Also, the T/C is 108 % of control (dose: 200.0 mg/kg/injection, schedule: Q01DX007 (oral), vehicle: carboxymethylcellulose (CMC)); 94 % of control (dose: 400.0 mg/kg/injection, schedule: Q01DX007 (oral), vehicle: carboxymethylcellulose (CMC)); 101 % of control (dose: 500.0 mg/kg/injection, schedule: Q## X010 (oral), vehicle: saline); 101 % of control (dose: 800.0 mg/kg/injection, schedule: Q01DX007 (oral), vehicle: carboxymethylcellulose (CMC)).
On to `[B-][N+](CC)(CC)c1ccccc1`, for which the T/C under setting [12] is 92 % of control; the T/C (dose: 100.0 mg/kg/injection, schedule: Q01DX009 (ip), vehicle: saline with Tween-80) was 95 % of control; the T/C (dose: 200.0 mg/kg/injection, schedule: Q01DX009 (ip), vehicle: saline with Tween-80) is 92 % of control.
In the case of `Nc1ccn(CC(=O)N2CCOCC2)c(=O)n1`, the T/C by setting is: (dose: 25.0 mg/kg/injection, schedule: Q01DX009 (ip), vehicle: water) 93 % of control; under setting [8], 87 % of control; under setting [9], 87 % of control; under setting [10], 93 % of control; under setting [11], 88 % of control.
On to `CC1CCCC/C1=N/O` (stereo not given), for which the T/C was 100 % of control under setting [5]; 97 % of control (dose: 100.0 mg/kg/injection, schedule: Q01DX009 (ip), vehicle: saline); 92 % of control under setting [6]; 105 % of control (dose: 200.0 mg/kg/injection, schedule: Q01DX009 (ip), vehicle: saline); 91 % of control under setting [7]; 97 % of control (dose: 400.0 mg/kg/injection, schedule: Q01DX009 (ip), vehicle: saline).
`O=[N+]([O-])/C=C\c1cc2c3c(c1)CCCN3CCC2`: the T/C reads like this: (dose: 3.13 mg/kg/injection, schedule: Q01DX001 (ip), vehicle: saline with Tween-80) 95 % of control; (dose: 3.13 mg/kg/injection, schedule: Q04DX003 (ip), vehicle: saline with Tween-80) 98 % of control; (dose: 6.25 mg/kg/injection, schedule: Q01DX001 (ip), vehicle: saline with Tween-80) 94 % of control; (dose: 6.25 mg/kg/injection, schedule: Q04DX003 (ip), vehicle: saline with Tween-80) 93 % of control; (dose: 12.5 mg/kg/injection, schedule: Q01DX001 (ip), vehicle: saline with Tween-80) 95 % of control and 93 % of control; (dose: 12.5 mg/kg/injection, schedule: Q01DX009 (ip), vehicle: saline with Tween-80) 100 % of control. For the same compound, the T/C reads like this: (dose: 12.5 mg/kg/injection, schedule: Q04DX003 (ip), vehicle: saline with Tween-80) 97 % of control; (dose: 25.0 mg/kg/injection, schedule: Q01DX001 (ip), vehicle: saline with Tween-80) 93 % of control; (dose: 25.0 mg/kg/injection, schedule: Q01DX009 (ip), vehicle: saline with Tween-80) 102 % of control; (dose: 50.0 mg/kg/injection, schedule: Q01DX001 (ip), vehicle: saline with Tween-80) 97 % of control; under setting [12], 97 % of control.
With `CCCCCCCCCCCCCOc1ccc(Sc2ccc([N+](=O)[O-])cc2)cc1`, the T/C under setting [4] is 88 % of control.
